Reference: the NIST ThermoML archive (doi:10.1016/j.jct.2004.06.009)

Assay: molar heat capacity at constant pressure
Settings: 101.33 kPa

CC12CC3CC(C1)CC(C)(C3)C2 [1,3-dimethyladamantane]
Settings	molar heat capacity at constant pressure [J/K/mol]
8.24 K, Crystal 2	2.062
8.72 K, Crystal 2	2.425
9.2 K, Crystal 2	2.838
9.68 K, Crystal 2	3.291
10.16 K, Crystal 2	3.758
10.73 K, Crystal 2	4.336
11.38 K, Crystal 2	5.1
12.04 K, Crystal 2	5.875
12.71 K, Crystal 2	6.75
13.36 K, Crystal 2	7.626
14.03 K, Crystal 2	8.543
14.69 K, Crystal 2	9.462
15.35 K, Crystal 2	10.41
16.02 K, Crystal 2	11.41
16.68 K, Crystal 2	12.45
17.35 K, Crystal 2	13.38
18.02 K, Crystal 2	14.36
18.7 K, Crystal 2	15.27
19.36 K, Crystal 2	16.17
20.03 K, Crystal 2	17.19
20.92 K, Crystal 2	18.43
22.01 K, Crystal 2	19.87
23.09 K, Crystal 2	21.29
24.18 K, Crystal 2	22.59
25.26 K, Crystal 2	23.98
26.35 K, Crystal 2	25.2
27.44 K, Crystal 2	26.35
30.7 K, Crystal 2	29.56
31.79 K, Crystal 2	30.56
32.87 K, Crystal 2	31.44
33.96 K, Crystal 2	32.41
35.04 K, Crystal 2	33.24
36.12 K, Crystal 2	34.11
37.2 K, Crystal 2	34.83
38.29 K, Crystal 2	35.57
39.37 K, Crystal 2	36.35
40.44 K, Crystal 2	37.09
41.52 K, Crystal 2	37.79
42.59 K, Crystal 2	38.45
43.67 K, Crystal 2	39.15
44.74 K, Crystal 2	39.94
45.82 K, Crystal 2	40.58
46.91 K, Crystal 2	41.26
49.08 K, Crystal 2	42.53
50.15 K, Crystal 2	43.17
51.21 K, Crystal 2	43.97
52.28 K, Crystal 2	44.55
53.34 K, Crystal 2	45.28
54.4 K, Crystal 2	45.93
55.46 K, Crystal 2	46.84
56.52 K, Crystal 2	47.67
58.46 K, Crystal 2	49.49
60.51 K, Crystal 2	51.1
62.53 K, Crystal 2	52.46
63 K, Crystal 2	52.93
63.91 K, Crystal 2	53.57
64.83 K, Crystal 2	54.06
65.75 K, Crystal 2	54.71
66.66 K, Crystal 2	55.08
67.58 K, Crystal 2	55.66
68.49 K, Crystal 2	56.24
69.41 K, Crystal 2	57.05
71.4 K, Crystal 2	57.87
73.43 K, Crystal 2	58.84
75.49 K, Crystal 2	59.92
77.45 K, Crystal 2	60.94
79.6 K, Crystal 2	62.15
81.55 K, Crystal 2	63.11
82.51 K, Crystal 2	63.18
83.54 K, Crystal 2	64.04
84.58 K, Crystal 2	64.38
85.62 K, Crystal 2	65.28
86.66 K, Crystal 2	66.25
87.69 K, Crystal 2	66.5
88.73 K, Crystal 2	67.15
89.76 K, Crystal 2	68.17
90.79 K, Crystal 2	68.78
91.82 K, Crystal 2	69.62
92.85 K, Crystal 2	70.65
93.88 K, Crystal 2	71.07
94.91 K, Crystal 2	71.83
95.93 K, Crystal 2	72.84
96.96 K, Crystal 2	73.52
97.98 K, Crystal 2	74.02
99.01 K, Crystal 2	74.65
100.04 K, Crystal 2	75.78
101.06 K, Crystal 2	77.14
102.08 K, Crystal 2	77.29
103.1 K, Crystal 2	78.16
104.13 K, Crystal 2	78.65
105.15 K, Crystal 2	79.24
106.17 K, Crystal 2	79.77
107.18 K, Crystal 2	80.75
108.2 K, Crystal 2	81.19
109.21 K, Crystal 2	82.31
110.22 K, Crystal 2	83.3
111.24 K, Crystal 2	83.76
112.25 K, Crystal 2	84.74
113.26 K, Crystal 2	85.56
114.27 K, Crystal 2	86.06
115.29 K, Crystal 2	86.71
116.3 K, Crystal 2	87.61
117.31 K, Crystal 2	88.53
118.32 K, Crystal 2	89.31
119.33 K, Crystal 2	90.06
120.34 K, Crystal 2	90.8
121.35 K, Crystal 2	91.66
122.36 K, Crystal 2	92.56
123.36 K, Crystal 2	93.09
124.37 K, Crystal 2	94.23
125.38 K, Crystal 2	94.72
126.39 K, Crystal 2	95.77
127.4 K, Crystal 2	96.32
128.4 K, Crystal 2	97.15
129.4 K, Crystal 2	97.61
130.4 K, Crystal 2	98.84
131.41 K, Crystal 2	99.23
132.41 K, Crystal 2	99.74
133.41 K, Crystal 2	100.92
135.41 K, Crystal 2	102.12
136.41 K, Crystal 2	102.85
137.41 K, Crystal 2	103.66
138.41 K, Crystal 2	104.15
139.41 K, Crystal 2	105.02
140.41 K, Crystal 2	106
141.4 K, Crystal 2	106.56
142.4 K, Crystal 2	107.72
143.4 K, Crystal 2	107.89
144.4 K, Crystal 2	108.44
145.37 K, Crystal 2	109.47
146.37 K, Crystal 2	110.32
147.36 K, Crystal 2	111.05
148.36 K, Crystal 2	112.04
149.35 K, Crystal 2	112.85
150.34 K, Crystal 2	113.58
151.33 K, Crystal 2	114.44
153.32 K, Crystal 2	115.43
154.31 K, Crystal 2	116.66
155.3 K, Crystal 2	117.21
156.29 K, Crystal 2	118.03
157.28 K, Crystal 2	118.57
158.26 K, Crystal 2	119.55
159.25 K, Crystal 2	119.81
160.24 K, Crystal 2	120.34
161.21 K, Crystal 2	122.14
162.2 K, Crystal 2	123.06
163.18 K, Crystal 2	123.69
164.17 K, Crystal 2	123.65
165.15 K, Crystal 2	125.01
166.14 K, Crystal 2	125.6
167.12 K, Crystal 2	126.03
168.11 K, Crystal 2	127.28
169.09 K, Crystal 2	127.61
170.07 K, Crystal 2	128.22
171.06 K, Crystal 2	129.42
172.04 K, Crystal 2	130.05
173.02 K, Crystal 2	130.24
174 K, Crystal 2	130.98
174.98 K, Crystal 2	131.94
175.95 K, Crystal 2	133.61
177.89 K, Crystal 2	134.48
178.87 K, Crystal 2	134.87
179.85 K, Crystal 2	135.66
180.58 K, Crystal 2	136.61
181.56 K, Crystal 2	136.89
182.53 K, Crystal 2	137.98
183.51 K, Crystal 2	138.41
184.48 K, Crystal 2	139.16
185.46 K, Crystal 2	140.28
186.43 K, Crystal 2	141.09
187.4 K, Crystal 2	142.02
189.35 K, Crystal 2	143.47
190.3 K, Crystal 2	143.86
194.17 K, Crystal 2	146.97
195.13 K, Crystal 2	148.03
197.07 K, Crystal 2	149.99
198.04 K, Crystal 2	150.21
198.92 K, Crystal 2	151.08
199.88 K, Crystal 2	152.08
201.81 K, Crystal 2	154.34
202.78 K, Crystal 2	154.59
203.74 K, Crystal 2	155.44
204.71 K, Crystal 2	156.27
205.67 K, Crystal 2	156.84
206.64 K, Crystal 2	157.68
207.51 K, Crystal 2	158.4
208.55 K, Crystal 2	158.98
209.51 K, Crystal 2	160.26
210.47 K, Crystal 2	161.38
211.43 K, Crystal 2	162.2
212.27 K, Crystal 2	162.95
213.23 K, Crystal 2	163.97
214.19 K, Crystal 2	164.82
215.15 K, Crystal 2	165.6
216.12 K, Crystal 2	166.3
217.08 K, Crystal 2	166.99
218.03 K, Crystal 2	167.93
218.99 K, Crystal 2	169.35
219.95 K, Crystal 2	170.97
225.79 K, Crystal 1	199.33
226.66 K, Crystal 1	199.97
227.53 K, Crystal 1	201.06
228.4 K, Crystal 1	201.46
230.04 K, Crystal 1	202.98
230.88 K, Crystal 1	203.84
230.9 K, Crystal 1	202.87
231.76 K, Crystal 1	203.35
232.42 K, Crystal 1	205.24
233.95 K, Crystal 1	206.13
235.48 K, Crystal 1	207.28
237 K, Crystal 1	208.26
238.51 K, Crystal 1	209.76
240.02 K, Crystal 1	210.33
241.45 K, Crystal 1	210.84
242.96 K, Crystal 1	212.78
244.46 K, Crystal 1	214.29
251.29 K, Liquid	225.79
252.68 K, Liquid	226.58
254.08 K, Liquid	227.55
255.49 K, Liquid	228.41
256.89 K, Liquid	229.48
258.3 K, Liquid	230.29
259.7 K, Liquid	231
261.1 K, Liquid	232.08
262.5 K, Liquid	232.76
263.89 K, Liquid	233.85
265.29 K, Liquid	235.31
266.68 K, Liquid	235.54
268.08 K, Liquid	236.58
269.46 K, Liquid	237.84
270.85 K, Liquid	239.09
272.24 K, Liquid	239.93
273.56 K, Liquid	240.47
274.94 K, Liquid	241.87
277.72 K, Liquid	243.58
279.1 K, Liquid	244.65
280.48 K, Liquid	245.61
281.85 K, Liquid	246.79
283.23 K, Liquid	247.54
284.61 K, Liquid	248.53
285.98 K, Liquid	249.45
287.36 K, Liquid	250.28
288.73 K, Liquid	251.39
290.1 K, Liquid	252.27
291.46 K, Liquid	253.18
292.84 K, Liquid	254.46
294.2 K, Liquid	254.72
295.48 K, Liquid	256.04
296.85 K, Liquid	256.83
298.22 K, Liquid	258.31
299.58 K, Liquid	259.27
300.95 K, Liquid	260.05
302.3 K, Liquid	260.79
303.66 K, Liquid	261.66
306.37 K, Liquid	263.51
307.73 K, Liquid	264.36
309.08 K, Liquid	265.4
310.42 K, Liquid	266.59
311.76 K, Liquid	267.05
313.08 K, Liquid	268.41
314.41 K, Liquid	269.34
315.76 K, Liquid	270.21
317 K, Liquid	270.69
318.33 K, Liquid	272.36
319.67 K, Liquid	272.93
321.02 K, Liquid	273.59
322.36 K, Liquid	274.52
323.7 K, Liquid	275.69
325.04 K, Liquid	276.85
326.38 K, Liquid	276.96
327.72 K, Liquid	278.17
329.06 K, Liquid	279.49
330.4 K, Liquid	280.25
331.73 K, Liquid	281.52
334.39 K, Liquid	283.43
335.72 K, Liquid	284.46
337.04 K, Liquid	285.09
338.23 K, Liquid	285.9
339.56 K, Liquid	286.67
340.88 K, Liquid	287.92
342.17 K, Liquid	289.16
343.47 K, Liquid	290.19
344.79 K, Liquid	291.02
346.09 K, Liquid	292.18
347.39 K, Liquid	292.25
348.71 K, Liquid	293.14
350.02 K, Liquid	294.11
351.34 K, Liquid	294.99
352.65 K, Liquid	295.66
353.96 K, Liquid	296.46
355.26 K, Liquid	297.51
356.57 K, Liquid	298.73
357.86 K, Liquid	298.97
359 K, Liquid	299.74
